The source of these data is patent publication US20100286215A1, “BIS-AROMATIC COMPOUNDS USEFUL IN THE TREATMENT OF INFLAMMATION” (BIS-AROMATIC COMPOUNDS USEFUL IN THE TREATMENT OF …, priority 2007, published 2010).

The target of one experiment is T1, Recombinant human LTC4 synthase (Homo sapiens, UniProt Q16873).
T1 construct: made in house; host or cells: Pichia pastoris ('Piccia pastoralis' [sic])
T1 sequence (Q16873 1-150): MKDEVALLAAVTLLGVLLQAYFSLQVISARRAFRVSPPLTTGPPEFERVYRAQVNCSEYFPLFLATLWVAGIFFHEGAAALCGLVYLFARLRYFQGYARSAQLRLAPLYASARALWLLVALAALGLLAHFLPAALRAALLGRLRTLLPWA
The experiment can be described thus: LTC4 synthase assay (conversion of LTA4 methyl ester to LTC4 methyl ester, HPLC). Type of experiment: biochemical.
Settings: not given
Here is the method:
In the assay LTC4 synthase catalyses the reaction where the substrate LTA4 methyl ester is converted to LTC4 methyl ester. Recombinant human LTC4 synthase is expressed in Piccia pastoralis and the purified enzyme is dissolved in 25 mM Tris-buffer pH 7.8 and stored at −20° C. The assay is performed in phosphate buffered saline (PBS) pH 7.4, supplemented with 5 mM glutathione (GSH). The reaction is terminated by addition of acetonitrile/MeOH/acetic acid (50/50/1). The assay is performed at rt in 96-well plates. Analysis of the formed LTC4 methyl ester is performed with reversed phase HPLC (Waters 2795 utilizing an Onyx Monolithic C18 column). The mobile phase consists of acetonitrile/MeOH/H2O (32.5/30/37.5) with 1% acetic acid pH adjusted with NH3 to pH 5.6, and absorbance measured at 280 nm with a Waters 2487 UV-detector.
The following is added chronologically to each well: • 1. 50 μl assay buffer, PBS with 5 mM GSH. • 2. 0.5 μl inhibitor in DMSO. • 3. 2 μl LTC4 synthase in PBS. The total protein concentration in this solution is 0.025 mg/ml. Incubation of the plate at room temperature for 10 minutes. • 4. 0.5 μl LTA4 methyl ester. Incubation of the plate at rt for 1 min. • 5. 50 μl stop solution. 80 μl of the incubation mixture is analysed with HPLC.
For orientation: IC50 means the concentration needed to halve the response being measured. `CCCCOc1ccc(S(=O)(=O)Nc2ccc(C(=O)c3ccc(NC(=O)c4ccc(OC(C)C)cc4)c(C(=O)O)c3)cc2C(=O)O)cc1` [Example 13, 5-[(3-Carboxy-4-(4-n-butoxy-benzenesulfonylamino)benzoyl)]-2-(4-isopropoxybenzoylamino)-benzoic acid]: the IC50 turned out to be 86 nM.

Staying with this experiment, now noted: inhibitor concentration 10 μM; read-out: Percantage Inhibition at 10 μM (unless specified otherwise).
Broadly, the inhibition is the share of the control response that was lost under treatment. In the case of `CCCCOc1ccc(S(=O)(=O)Nc2ccc(C(=O)c3ccc(NC(=O)c4cccc(Cl)c4Cl)c(C(=O)O)c3)cc2C(=O)O)cc1` [Example 12, 5-[(3-Carboxy-4-(4-n-butoxy-benzenesulfonylamino)benzoyl)]-2-(2,3-dichlorobenzoylamino)benzoic acid], the inhibition at 10 µM amounted to 98%.

Take `CCCCOc1ccc(S(=O)(=O)Nc2ccc(C(=O)c3ccc(NC(=O)c4ccc(OC(C)C)cc4)c(C(=O)O)c3)cc2C(=O)O)cc1` [Example 13, 5-[(3-Carboxy-4-(4-n-butoxy-benzenesulfonylamino)benzoyl)]-2-(4-isopropoxybenzoylamino)-benzoic acid]: the inhibition at 10 µM was found to be 100%.

In the case of `CCCCOc1ccc(S(=O)(=O)Nc2ccc(C(=O)c3ccc(Nc4ccc(F)c(F)c4)c(C(=O)O)c3)cc2)cc1` [Example 14, 5-(4-(4-butoxyphenylsulfonamido)benzoyl)-2-(3,4-difluorophenylamino)benzoic acid], the inhibition at 10 µM stood at 100%.

As for `CN(c1ccc(Cl)cc1)c1ccc(C(=O)c2ccc(NC3CCC(C(C)(C)C)CC3)c(C(=O)O)c2)cc1` (stereo not shown) [Example 14:3, 2-(4-tert-Butyl-cyclohexylamino)-5-{4-[(4-chloro-phenyl)-methyl-amino]-benzoyl}-benzoic acid], the inhibition at 10 µM was 86%.

Consider `CC(C)Oc1ccc(C(=O)Nc2ccc(C(=O)c3ccc(Nc4ccc(F)c(F)c4)c(C(=O)O)c3)cc2)cc1` [Example 15, 2-(3,4-difluorophenylamino)-5-(4-(4-isopropoxybenzamido)benzoyl)benzoic acid], for which the inhibition at 10 µM came to 68%.

Take `O=C(c1ccc(Nc2ccc(Cl)cc2)cc1)c1ccc(Nc2ccc(F)c(F)c2)c(C(=O)O)c1` [Example 16, 5-(4-(4-chlorophenylamino)-benzoyl)-2-(3,4-difluoro-phenylamino)benzoic acid]: the inhibition at 10 µM was found to be 94%.

Take `CCCCOc1ccc(S(=O)(=O)Nc2ccc(C(=O)c3ccc(N(C)c4ccc(F)c(F)c4)c(C(=O)O)c3)cc2)cc1` [Example 17, 5-(4-(4-butoxyphenylsulfonamido)benzoyl)-2-((3,4-di-fluorophenyl)(methyl)amino)benzoic acid]: the inhibition at 10 µM came to 99%.

`CN(c1ccc(F)c(F)c1)c1ccc(C(=O)c2ccc(NC(=O)c3cc(Cl)ccc3O)cc2)cc1C(=O)O` [Example 18, 5-(4-(5-chloro-2-hydroxy-benzamido)benzoyl)-2-((3,4-difluorophenyl)(methyl)-amino)benzoic acid]: the inhibition at 10 µM was 100%.

With `CN(c1ccc(F)c(F)c1)c1ccc(C(=O)c2ccc(Nc3ccc(Cl)cc3)cc2)cc1C(=O)O` [Example 19, 5-(4-(4-chlorophenylamino)-benzoyl)-2-((3,4-difluoro-phenyl)(methyl)amino)-benzoic acid], the inhibition at 10 µM stood at 75%.
